Measured values published in ChEMBL document CHEMBL1139391, “Synthesis and structure-activity relationship of benzetimide derivatives as human CXCR3 antagonists” (Bioorg Med Chem Lett, 2008).

Tests used:
[1] = molecular target: T1, C-X-C chemokine receptor type 3 (Homo sapiens, UniProt P49682); assay: Antagonist activity at human CXCR3 expressed in CHO cells assessed as inhibition of ITAC-stimulated [35S]GTPgammaS binding pretreated 30 mins before ITAC challenge; type: functional, cell-based
T1 sequence (P49682 whole entry): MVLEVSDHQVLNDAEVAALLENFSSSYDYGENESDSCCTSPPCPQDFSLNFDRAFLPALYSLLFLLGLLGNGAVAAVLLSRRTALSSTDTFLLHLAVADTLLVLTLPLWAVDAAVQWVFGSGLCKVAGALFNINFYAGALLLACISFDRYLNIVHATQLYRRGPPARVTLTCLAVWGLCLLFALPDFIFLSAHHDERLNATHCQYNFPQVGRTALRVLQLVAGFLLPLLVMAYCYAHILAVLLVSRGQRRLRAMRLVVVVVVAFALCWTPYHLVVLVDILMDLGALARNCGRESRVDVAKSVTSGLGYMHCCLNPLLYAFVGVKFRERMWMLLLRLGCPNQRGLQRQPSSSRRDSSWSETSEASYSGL

[2] = molecular target: T2, Muscarinic acetylcholine receptor M2 (Homo sapiens, UniProt P08172); assay: Binding affinity to human muscarinic M2 receptor
T2 sequence (P08172 whole entry): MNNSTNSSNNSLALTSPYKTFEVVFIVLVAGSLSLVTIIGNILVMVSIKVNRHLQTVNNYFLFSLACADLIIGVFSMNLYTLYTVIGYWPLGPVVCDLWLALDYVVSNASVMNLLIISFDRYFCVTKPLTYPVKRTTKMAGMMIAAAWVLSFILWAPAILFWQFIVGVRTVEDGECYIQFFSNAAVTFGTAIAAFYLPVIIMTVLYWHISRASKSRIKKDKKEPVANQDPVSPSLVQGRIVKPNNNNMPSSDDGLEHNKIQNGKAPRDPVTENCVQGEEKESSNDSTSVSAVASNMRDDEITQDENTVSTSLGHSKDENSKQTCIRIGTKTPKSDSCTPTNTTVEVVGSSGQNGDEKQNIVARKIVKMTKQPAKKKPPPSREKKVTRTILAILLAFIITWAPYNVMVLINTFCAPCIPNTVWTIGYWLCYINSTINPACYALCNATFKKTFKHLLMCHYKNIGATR

[3] = molecular target: Muscarinic acetylcholine receptor M3 (Homo sapiens, UniProt P20309); assay: Binding affinity to human muscarinic M3 receptor
Sequence of Muscarinic acetylcholine receptor M3 (P20309 whole entry): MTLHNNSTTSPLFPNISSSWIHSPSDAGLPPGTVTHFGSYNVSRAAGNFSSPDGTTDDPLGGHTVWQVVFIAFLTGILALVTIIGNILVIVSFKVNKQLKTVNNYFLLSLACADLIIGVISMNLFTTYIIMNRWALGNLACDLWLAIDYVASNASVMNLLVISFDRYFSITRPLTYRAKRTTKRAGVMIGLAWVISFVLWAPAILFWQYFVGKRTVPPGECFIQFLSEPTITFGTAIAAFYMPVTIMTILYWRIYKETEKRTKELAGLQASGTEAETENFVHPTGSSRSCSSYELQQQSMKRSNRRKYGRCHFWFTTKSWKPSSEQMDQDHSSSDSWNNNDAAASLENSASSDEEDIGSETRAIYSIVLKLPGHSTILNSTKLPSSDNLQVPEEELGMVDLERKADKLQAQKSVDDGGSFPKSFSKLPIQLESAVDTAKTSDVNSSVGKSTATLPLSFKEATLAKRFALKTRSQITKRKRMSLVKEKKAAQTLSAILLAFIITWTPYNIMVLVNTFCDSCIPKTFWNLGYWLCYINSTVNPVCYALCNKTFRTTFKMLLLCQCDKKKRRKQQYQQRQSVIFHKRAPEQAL

[4] = molecular target: T3, Muscarinic acetylcholine receptor M1 (Homo sapiens, UniProt P11229); assay: Binding affinity to human muscarinic M1 receptor
T3 sequence (P11229 whole entry): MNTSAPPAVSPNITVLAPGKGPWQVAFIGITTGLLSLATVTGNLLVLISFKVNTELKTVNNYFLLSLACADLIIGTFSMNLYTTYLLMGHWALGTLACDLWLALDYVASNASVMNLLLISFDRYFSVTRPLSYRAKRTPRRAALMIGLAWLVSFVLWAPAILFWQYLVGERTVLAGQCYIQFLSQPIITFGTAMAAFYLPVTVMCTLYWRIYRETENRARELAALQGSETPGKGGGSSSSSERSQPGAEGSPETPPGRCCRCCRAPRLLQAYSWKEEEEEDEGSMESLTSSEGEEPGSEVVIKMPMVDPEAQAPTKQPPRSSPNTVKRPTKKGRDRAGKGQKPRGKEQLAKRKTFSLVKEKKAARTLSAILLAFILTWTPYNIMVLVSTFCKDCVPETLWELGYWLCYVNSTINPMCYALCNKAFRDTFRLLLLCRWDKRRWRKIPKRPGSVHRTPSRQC

Row | Compound | IC50 [1] [nM] | IC50 [2] [µM] | IC50 [3] [µM] | IC50 [4] [µM] | IC50 ([1]; cho) [nM]
1 | O=C(N1CCCC(c2ccccc2)(C2CCN(Cc3ccc(Br)cc3)CC2)C1)C(F)(F)F (racemic) | 690 | – | – | – | –
2 | O=C(Nc1ccccc1)N1CCCC(c2ccccc2)(C2CCN(Cc3ccc(Br)cc3)CC2)C1 (single isomer, unassigned; (+)) | 6310 | > 10 | > 10 | 8.9 | –
3 | O=CN1CCCC(c2ccccc2)(C2CCN(Cc3ccc(Br)cc3)CC2)C1 (racemic) | 150 | – | – | – | –
4 | NC(=O)N1CCCC(c2ccccc2)(C2CCN(Cc3ccc(Br)cc3)CC2)C1 (racemic) | 250 | – | – | – | –
5 | CC(=O)N1CCCC(c2ccccc2)(C2CCN(Cc3ccc(Br)cc3)CC2)C1 (single isomer, unassigned; (+)) | 2310 | > 10 | > 10 | > 10 | –
6 | NC(=O)CN1CCCC(c2ccccc2)(C2CCN(Cc3ccc(Br)cc3)CC2)C1 (racemic) | 80 | – | – | – | –
7 | CC(=O)N1CCCC(c2ccccc2)(C2CCN(Cc3ccc(Br)cc3)CC2)C1 (racemic) | 140 | – | – | – | –
8 | O=C(Nc1ccccc1)N1CCCC(c2ccccc2)(C2CCN(Cc3ccc(Br)cc3)CC2)C1 (racemic) | 60 | – | – | – | –
9 | Brc1ccc(CN2CCC(C3(c4ccccc4)CCCNC3)CC2)cc1 (racemic) | > 10000 | – | – | – | –
10 | O=C1CCC(c2cccc(Cl)c2)(C2CCN(Cc3ccc(Br)cc3)CC2)C(=O)N1 (racemic) | 1450 | – | – | – | –
11 | CCOC(=O)N1CCCC(c2ccccc2)(C2CCN(Cc3ccc(Br)cc3)CC2)C1 (racemic) | 320 | – | – | – | –
12 | O=C1CCC(c2ccccc2)(C2CCN(Cc3ccccc3)CC2)C(=O)N1 (stereo in doubt; (-)-3a) [BENZETIMIDE] | – | > 10 | > 10 | > 10 | > 10000
13 | O=C1CCC(c2ccc(F)cc2F)(C2CCN(Cc3ccc(Br)cc3)CC2)C(=O)N1 (racemic) | 120 | – | – | – | –
14 | O=C1CCC(c2ccccc2)(C2CCN(Cc3ccccc3)CC2)C(=O)N1 (racemic) [BENZETIMIDE] | > 10000 | – | – | – | –
15 | COc1ccc(C2(C3CCN(Cc4ccc(Br)cc4)CC3)CCC(=O)NC2=O)cc1 (racemic) | 3630 | – | – | – | –
16 | CCCN1C(=O)CCC(c2ccccc2)(C2CCN(Cc3ccc(Br)cc3)CC2)C1=O (racemic) | 5010 | – | – | – | –
17 | CC(=O)N1CCCC(c2ccccc2)(C2CCN(Cc3ccc(Br)cc3)CC2)C1 (single isomer, unassigned; (-)) | 110 | 10 | 3 | 10 | –
18 | O=C1CCC(c2ccccc2)(C2CCN(Cc3ccc(Cl)cc3)CC2)C(=O)N1 (racemic) | 830 | – | – | – | –
19 | COc1cccc(C2(C3CCN(Cc4ccc(Br)cc4)CC3)CCC(=O)NC2=O)c1 (racemic) | 1550 | – | – | – | –
20 | O=C1CCC(c2ccc(F)cc2F)(C2CCN(Cc3ccc(Br)cc3)CC2)C(=O)N1 (single isomer, unassigned; (+)) | 330 | < 0.001 | < 0.001 | < 0.001 | –

Row | Compound | IC50 [1] [nM] | IC50 [2] [µM] | IC50 [3] [µM] | IC50 [4] [µM] | IC50 ([1]; cho) [nM]
21 | O=C1CCC(c2ccccc2)(C2CCN(Cc3ccc(Cl)cc3Cl)CC2)C(=O)N1 (racemic) | 3160 | – | – | – | –
22 | O=C1CCC(c2ccc(F)cc2)(C2CCN(Cc3ccc(Br)cc3)CC2)C(=O)N1 (racemic) | 1260 | – | – | – | –
23 | COc1ccc(CN2CCC(C3(c4ccccc4)CCC(=O)NC3=O)CC2)cc1 (racemic) | 4270 | – | – | – | –
24 | O=C(Nc1ccccc1)N1CCCC(c2ccccc2)(C2CCN(Cc3ccc(Br)cc3)CC2)C1 (single isomer, unassigned; (-)) | 30 | > 10 | > 10 | > 10 | –
25 | Cc1ccc(CN2CCC(C3(c4ccccc4)CCC(=O)NC3=O)CC2)cc1 (racemic) [MELETIMIDE] | 2400 | – | – | – | –
26 | NS(=O)(=O)N1CCCC(c2ccccc2)(C2CCN(Cc3ccc(Br)cc3)CC2)C1 (racemic) | 210 | – | – | – | –
27 | O=C(C1CC1)N1CCCC(c2ccccc2)(C2CCN(Cc3ccc(Br)cc3)CC2)C1 (racemic) | 180 | – | – | – | –
28 | NC(=O)CN1CCCC(c2ccccc2)(C2CCN(Cc3ccc(Br)cc3)CC2)C1 (stereo in doubt; (+)-47b) | 60 | > 10 | > 10 | > 10 | –
29 | O=C1CCC(c2ccccc2)(C2CCN(Cc3ccc(F)cc3)CC2)C(=O)N1 (racemic) | 4570 | – | – | – | –
30 | O=C1CCC(c2ccccc2)(C2CCN(Cc3ccccc3)CC2)C(=O)N1 (single isomer, unassigned; (+)) [BENZETIMIDE] | – | < 0.001 | < 0.001 | < 0.001 | > 10000
31 | CCC(=O)N1CCCC(c2ccccc2)(C2CCN(Cc3ccc(Br)cc3)CC2)C1 (racemic) | 290 | – | – | – | –
32 | COc1ccc(S(=O)(=O)O)cc1C1(C2CCN(Cc3ccc(Br)cc3)CC2)CCC(=O)NC1=O (racemic) | 170 | – | – | – | –
33 | O=C1CCC(c2ccccc2)(C2CCN(Cc3ccc(Br)cc3)CC2)C(=O)N1 (racemic) | 780 | – | – | – | –
34 | O=C1CCC(c2ccc(F)cc2F)(C2CCN(Cc3ccc(Br)cc3)CC2)C(=O)N1 (single isomer, unassigned; (-)) | 60 | > 10 | > 10 | > 10 | –
35 | O=C1CCC(c2ccccc2)(C2CCN(Cc3ccc(Cl)c(C(F)(F)F)c3)CC2)C(=O)N1 (racemic) | 2510 | – | – | – | –
36 | NC(=O)CN1CCCC(c2ccccc2)(C2CCN(Cc3ccc(Br)cc3)CC2)C1 (single isomer, unassigned; (-)) | 810 | 2 | 1.1 | 5 | –
37 | Nc1cccc(C2(C3CCN(Cc4ccc(Br)cc4)CC3)CCC(=O)NC2=O)c1 (racemic) | 320 | – | – | – | –
38 | O=C1CCC(c2ccccc2)(C2CCN(Cc3ccc(Cl)c(F)c3)CC2)C(=O)N1 (single isomer, unassigned; (-)) | 340 | – | – | – | –
39 | O=C1CCC(c2ccccc2)(C2CCN(Cc3ccc(Br)cc3)CC2)C(=O)N1 (single isomer, unassigned; (+)) | 1330 | < 0.001 | < 0.001 | < 0.001 | –
40 | CN1CCN(C(=O)c2cccc(C3(C4CCN(Cc5ccc(Br)cc5)CC4)CCC(=O)NC3=O)c2)CC1 (racemic) | 1260 | – | – | – | –
